Measured values: article PMC10414583, “Structures of SARS-CoV-2 N7-methyltransferase with DOT1L and PRMT7 inhibitors provide a platform for new antivirals” (PLOS Pathogens, 2023)

Molecular target: T1, SARS-CoV-2 nsp14/nsp10 complex (Severe acute respiratory syndrome coronavirus 2, UniProt P0DTD1)
T1 construct: gene rep; full-length mature nsp14 and nsp10 cut from replicase polyprotein 1ab; co-expressed from one pRSF-Duet-1 plasmid in E. coli BL21Gold (DE3), C-terminal 6xHis; with Non-structural protein 10
Experiment: biochemical
Assay type: binding

SMILES	Kd [µM]
Nc1nc2c(ncn2[C@@H]2O[C@H](COP(=O)(O)OP(=O)(O)OP(=O)(O)OC[C@H]3O[C@@H](n4cnc5c(N)ncnc54)[C@H](O)[C@@H]3O)[C@@H](O)[C@H]2O)c(=O)[nH]1 [GpppA RNA cap analog]	20
C[S+](CC[C@H](N)C(=O)O)C[C@H]1O[C@@H](n2cnc3c(N)ncnc32)[C@H](O)[C@@H]1O (stereo partly shown) [SAM]	~6
CC(C)N(CCCNC(=O)Nc1ccc(C(C)(C)C)cc1)C[C@H]1O[C@@H](n2cc(Br)c3c(N)ncnc32)[C@H](O)[C@@H]1O [SGC0946]	~8
Nc1ncnc2c1ncn2[C@@H]1O[C@H](CSCCCCNCc2cccc(-c3ccc(Cl)cc3)c2)[C@@H](O)[C@H]1O [SGC8158]	~6
